Assays:
[1] = tested on: AKT phosphorylation in bone marrow-derived myeloid cells; assay: AKT phosphorylation in myeloid cells stimulated with macrophage colony stimulating factor; type: cell-based; settings: data not shown
[2] = tested on: LPS-stimulated mouse B cells; assay: mouse plasmablast differentiation (CD138+B220lo); type: cell-based; settings: 72 h
Method: Figure 5 IPI-3063 potently […] mouse B cell antibody switching and inhibits plasmablast differentiation. Purified B cells were pretreated with inhibitors, then stimulated with αCD40 + IL-4 (B) or LPS + IL-4 (C) for 96 h to induce switching to IgG1 or LPS (D) for 72 h to induce plasmablast differentiation. Class switching to IgG1 was measured by the 7AAD^−CFSE^loB220^+IgG1^+ cells [(A), upper panels]. Plasmablast percentages were calculated by % 7AAD^−CFSE^loCD138^+B220^lo population [(A), lower]. Supernatant was harvested (E) for IgM ELISA. Concentrations used were 1 nM, 10 nM, 100 nM, 1 µM for IPI-443 and 1, 10, 30, 100 nM for IPI-3063. Low concentrations of IPI-3063 were 0.01 and 0.1 nM (D). AS252424 concentrations were 100 nM, 300 nM, and 1 µM, and GDC-0941 was at 500 nM. Samples were collected by time (*P < 0.05, **P < 0.001, ***P < 0.0001 one-way ANOVA with Newman–Keuls multiple comparison test). […]
We also evaluated plasmablast differentiation and IgM secretion in LPS-stimulated cells (Figure 5D). […]
(§1) Mouse splenic B cells were purified by negative selection (eBioscience Magnisort Mouse B cell enrichment kit). B-cell purity was >95% as measured by FACS analysis (FACSCalibur and CellQuest software; BD Biosciences) using anti-B220 antibody (BioLegend). […]

mouse primary B cells = assay: mouse B cell antibody class switching to IgG1; type: cell-based; settings: αCD40 + IL-4, 96 h
Source text: Studies with p110δ inhibitors have shown that low PI3K signaling in B cells promotes antibody class switch recombination (CSR) and decreases differentiation into plasmablasts that secrete low-affinity IgM ([18], [19]). Activation of mouse primary B cells with αCD40 + IL-4 or LPS + IL-4 both induce IgG1 class switching while treatment with LPS alone induces the plasmablast differentiation fate (Figure 5A). In B cells stimulated with αCD40 + IL-4, IPI-3063 increased the percentage of B220^+ cells switching to IgG1 starting at 1 nM and approached the effect of GDC-0941 (Figure 5B).
Figure 5 IPI-3063 potently […] mouse B cell antibody switching and inhibits plasmablast differentiation. Purified B cells were pretreated with inhibitors, then stimulated with αCD40 + IL-4 (B) or LPS + IL-4 (C) for 96 h to induce switching to IgG1 or LPS (D) for 72 h to induce plasmablast differentiation. Class switching to IgG1 was measured by the 7AAD^−CFSE^loB220^+IgG1^+ cells [(A), upper panels]. Plasmablast percentages were calculated by % 7AAD^−CFSE^loCD138^+B220^lo population [(A), lower]. Supernatant was harvested (E) for IgM ELISA. […]
as §1

[3] = design: method as in PMID 24211136; settings: cited from earlier work
p110δ = assay: isoform-specific cell-based assay, pAKT S473 ELISA
Method: (§2) Phospho-Akt1 (S473) sandwich ELISA antibody kit (Cell Signaling Technology, cat. no. 7143) was utilized to analyze pAKT signal in cells as described previously by Winkler et al. ([11]) (for data see Table 2). Briefly, SKOV3 and 786.0 cells were seeded into 96-well cell culture-graded plates at a density of […] per 200 µl culture media per well. Raji and Raw264.7 were seeded at the same density in FBS-free media. After overnight incubation at 5% CO2 and 37°C, the cells were treated with inhibitor for 30 min. Raji cells were stimulated with 10 µg/mL anti-human IgM (Jackson ImmunoResearch) for 30 min and Raw264.7 cells with 25 nM C5a (RnD Systems) for 3 min in the presence of inhibitor. SKOV3 and 786.0 cells were not stimulated. Medium was then aspirated and 50 µL/well of ice-cold lysis buffer was added. pAKT level was determined according to the manufacturer’s instruction.

p110α = assay: isoform-specific cell-based assay, pAKT S473 ELISA; settings: read-out: Cellular IC50
Method: as §2

p110β [4] = molecular target: T1, p110β (Homo sapiens, UniProt P42338); assay: isoform-specific cell-based assay, pAKT S473 ELISA; design: endogenous in cells; host or cells: 786.0; settings: read-out: Cellular IC50
Method: as §2

p110β [5] = molecular target: T1, p110β; assay: PI3K enzymatic assay (ADP-Glo) with purified enzymes; design: heterodimers consisting of full length p110α, p110β, or p110δ catalytic subunit and the p85α regulatory subunit; purchased Millipore 14-603-K; settings: purified enzyme, mean ± spread (n), read-out: Biochemical IC50
Method: Human recombinant PI3K-α (cat. no. 14-602-K), -β (cat. no. 14-603-K), -δ (cat. no. 14-604-K), and -γ (cat. no. 14-558-K) were purchased from Millipore. Phosphatidylinositol 4,5 bis phosphate (diC8-PtdIns(4,5)P2) was purchased from Avanti Polar Lipids, Inc. PI3K-α, β, and δ are heterodimers consisting of full length p110α, p110β, or p110δ catalytic subunit and the p85α regulatory subunit. PI3K-γ is a monomer of the p110γ catalytic subunit. Samples of kinase (10 nM—α, β, and δ; 20 nM—γ) were incubated with inhibitor for 30 min at room temperature in reaction buffer (15 mM HEPES pH 7.4, 20 mM NaCl, 1 mM EGTA, 0.02% Tween 20, 10 mM MgCl2, 0.2 mg/mL bovine-γ-globulins) followed by addition of ATP/diC8-PtdIns(4,5)P2 mixture to give final concentrations of 3 mM ATP and 500 µM diC8-PtdIns(4,5)P2. Reactions were incubated at room temperature for 2 h, with PI3K activity assessed via the Promega ADP-Glo Max assay kit (cat. no. V7002) according to the manufacturer’s instruction. Plates were read on Envision plate reader in luminescence mode.

T1 sequence (P42338 whole entry, canonical isoform): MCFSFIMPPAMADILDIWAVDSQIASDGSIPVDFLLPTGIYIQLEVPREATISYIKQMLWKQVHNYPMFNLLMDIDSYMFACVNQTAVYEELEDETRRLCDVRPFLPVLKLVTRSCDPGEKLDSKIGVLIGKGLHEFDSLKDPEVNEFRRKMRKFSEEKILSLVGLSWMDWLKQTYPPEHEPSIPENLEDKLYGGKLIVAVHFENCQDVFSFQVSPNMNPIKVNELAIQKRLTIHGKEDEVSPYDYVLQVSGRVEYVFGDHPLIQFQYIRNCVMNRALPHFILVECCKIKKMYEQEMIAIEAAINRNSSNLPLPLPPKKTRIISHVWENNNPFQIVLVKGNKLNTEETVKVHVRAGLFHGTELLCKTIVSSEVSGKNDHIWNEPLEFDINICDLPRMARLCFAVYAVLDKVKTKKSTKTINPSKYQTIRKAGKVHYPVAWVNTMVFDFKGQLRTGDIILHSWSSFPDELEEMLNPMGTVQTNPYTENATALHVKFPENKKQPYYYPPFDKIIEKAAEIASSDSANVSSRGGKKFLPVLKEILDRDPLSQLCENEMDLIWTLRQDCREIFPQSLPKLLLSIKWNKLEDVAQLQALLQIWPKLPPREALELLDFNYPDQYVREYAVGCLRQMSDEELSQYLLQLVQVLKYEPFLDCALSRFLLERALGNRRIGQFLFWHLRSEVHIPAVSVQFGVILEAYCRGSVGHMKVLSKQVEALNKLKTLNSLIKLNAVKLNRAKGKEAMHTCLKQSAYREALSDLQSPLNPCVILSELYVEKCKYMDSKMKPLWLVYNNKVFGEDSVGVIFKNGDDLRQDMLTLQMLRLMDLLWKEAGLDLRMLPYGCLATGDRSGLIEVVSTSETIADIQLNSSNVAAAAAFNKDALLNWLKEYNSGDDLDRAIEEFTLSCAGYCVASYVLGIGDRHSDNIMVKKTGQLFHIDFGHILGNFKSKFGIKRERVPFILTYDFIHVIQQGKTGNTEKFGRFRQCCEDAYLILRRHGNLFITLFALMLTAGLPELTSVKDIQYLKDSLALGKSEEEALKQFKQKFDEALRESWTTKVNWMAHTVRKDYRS
T1 sequence (P27986 whole entry partner, canonical isoform): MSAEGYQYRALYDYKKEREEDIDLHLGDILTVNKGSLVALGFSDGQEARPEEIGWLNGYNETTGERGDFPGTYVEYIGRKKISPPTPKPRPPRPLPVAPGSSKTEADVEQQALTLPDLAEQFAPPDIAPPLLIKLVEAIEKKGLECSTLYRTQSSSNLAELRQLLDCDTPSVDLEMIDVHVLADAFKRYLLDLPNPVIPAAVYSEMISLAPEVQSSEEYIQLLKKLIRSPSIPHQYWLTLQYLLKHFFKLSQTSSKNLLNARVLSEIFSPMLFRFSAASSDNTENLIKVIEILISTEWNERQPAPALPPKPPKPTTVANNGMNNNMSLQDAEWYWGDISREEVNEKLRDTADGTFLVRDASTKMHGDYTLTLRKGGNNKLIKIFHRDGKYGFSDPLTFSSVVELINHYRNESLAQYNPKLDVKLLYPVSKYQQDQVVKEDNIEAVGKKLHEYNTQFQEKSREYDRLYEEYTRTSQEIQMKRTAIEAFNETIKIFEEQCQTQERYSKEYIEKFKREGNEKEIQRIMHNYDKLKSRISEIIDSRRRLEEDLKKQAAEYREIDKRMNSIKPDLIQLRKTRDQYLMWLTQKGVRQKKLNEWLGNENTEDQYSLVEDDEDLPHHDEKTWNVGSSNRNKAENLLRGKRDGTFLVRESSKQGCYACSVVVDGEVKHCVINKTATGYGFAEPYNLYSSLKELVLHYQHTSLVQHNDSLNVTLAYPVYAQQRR

Row | SMILES | effect on AKT phosphorylation [1] | effect on plasmablast differentiation [2] | effect on IgG1 switching (mouse primary B cells) | pharmacokinetics in mice [3] | cellular IC50 values for the other class I PI3K isoforms relative to p110δ (p110δ; other class I isoforms vs p110δ, cell-based) | IC50 (p110δ; p110δ-specific cell-based assay, pAKT S473, read-out: Cellular IC50) [nM] | IC50 (p110α) [nM] | IC50 (p110β [4]) [nM] | concentration that decreases plasmablast differentiation ([2]; % CD138+B220lo) [nM] | IC50 (p110β [5]) [nM] | concentration that increases percentage of B220+ cells switching to IgG1 (mouse primary B cells) [nM]
1 | O=C1NC(=O)/C(=C/c2ccc(-c3ccc(F)cc3O)o2)S1 [AS-252424, reference compound] | dose-dependent inhibition | no significant effect | no effect | – | – | – | – | – | – | – | –
2 | CC(C)n1c([C@H](C)Nc2ncnc(N)c2C#N)cc2cccc(-c3ccc(=O)n(C)c3)c2c1=O [IPI-3063] | – | – | – | good | at least 1,000 fold | 0.1 ± 0.01 | 1900 | 103 ± 35.7 | ≥ 1 | 1510 | ≥ 1
